Consider 13 compounds from ChEMBL document CHEMBL4725293, “Synthesis of novel lignan-like compounds and their antimicrobial activity” (Bioorg Med Chem Lett, 2020).

Converted amounts (≈) assume the structure as drawn. The source made the active and inactive calls.

In data set [1] the test system is Staphylococcus aureus. The data set is described as follows: Antibacterial activity against Staphylococcus aureus ATCC 29213 by broth microdilution method. Type of data set: functional.
The test system of another data set is Pseudomonas aeruginosa. The data set is described as follows: Antibacterial activity against Pseudomonas aeruginosa ATCC 27853 by broth microdilution method. It counts as functional. (In general: Broth dilution looks for growth in wells or tubes with falling amounts of substance.)
The next data set deals with Candida albicans. The data set is described as follows: […] activity against Candida albicans ATCC 90028 by broth microdilution method. Type of data set: functional.
The subject of data set [2] is Staphylococcus aureus. Briefly: Bactericidal activity against Staphylococcus aureus ATCC 29213 at 16 ug/ml measured at 24 hrs by time kill assay (reference value: 5.65 to 9.57). It counts as functional. The settings on record: dose 16 µg/ml.
Data set [3] concerns Staphylococcus aureus. The data set is described as follows: Bactericidal activity against Staphylococcus aureus ATCC 29213 at 16 ug/ml measured at 6 hrs by time kill assay (reference value: 5.65 to 9.57). Conditions: dose 16 µg/ml. It counts as functional.
The subject of data set [4] is Staphylococcus aureus. Briefly: Bactericidal activity against Staphylococcus aureus ATCC 29213 at 16 ug/ml measured at 3 hrs by time kill assay (reference value: 5.65 to 9.57). It counts as functional. Conditions: dose 16 µg/ml.
For data set [5], the system named is Staphylococcus aureus. The data set is described as follows: Bactericidal activity against Staphylococcus aureus ATCC 29213 at 16 ug/ml measured at 1 hr by time kill assay (reference value: 5.65 to 9.57). It counts as functional. The settings on record: dose 16 µg/ml.
In data set [6] the test system is Staphylococcus aureus. Briefly: Bactericidal activity against Staphylococcus aureus ATCC 29213 at 16 ug/ml measured at 0 hrs by time kill assay (reference value: 5.65 to 9.57). Type of data set: functional. Conditions: dose 16 µg/ml.
Data set [7] concerns Staphylococcus aureus. The data set is described as follows: Bactericidal activity against Staphylococcus aureus ATCC 29213 at 32 ug/ml measured at 0 hrs by time kill assay (reference value: 5.65 to 9.57). Conditions: dose 32 µg/ml. Type of data set: functional.
The test system of data set [8] is Staphylococcus aureus. Briefly: Bactericidal activity against Staphylococcus aureus ATCC 29213 at 32 ug/ml measured at 1 hr by time kill assay (reference value: 5.65 to 9.57). It counts as functional. Conditions: dose 32 µg/ml.
In data set [9] the test system is Staphylococcus aureus. The data set is described as follows: Bactericidal activity against Staphylococcus aureus ATCC 29213 at 32 ug/ml measured at 3 hrs by time kill assay (reference value: 5.65 to 9.57). Conditions: dose 32 µg/ml. It counts as functional.
Data set [10] deals with Staphylococcus aureus. The data set is described as follows: Bactericidal activity against Staphylococcus aureus ATCC 29213 at 32 ug/ml measured at 6 hrs by time kill assay (reference value: 5.65 to 9.57). The settings on record: dose 32 µg/ml. It counts as functional.
Data set [11] deals with Staphylococcus aureus. The data set is described as follows: Bactericidal activity against Staphylococcus aureus ATCC 29213 at 32 ug/ml measured at 24 hrs by time kill assay (reference value: 5.65 to 9.57). It counts as functional. Conditions: dose 32 µg/ml.
Data set [12] deals with Staphylococcus epidermidis. Briefly: Antibacterial activity against Staphylococcus epidermidis ATCC 35984 by broth microdilution method. Type of data set: functional.
Data set [13] deals with Staphylococcus epidermidis. The data set is described as follows: Inhibition of biofilm formation in Staphylococcus epidermidis ATCC 35984 at 64 ug/ml by crystal violet staining based assay relative to control. It counts as functional.
Data set [14] deals with Staphylococcus epidermidis. The data set is described as follows: Inhibition of biofilm formation in Staphylococcus epidermidis ATCC 35984 at 8 to 32 ug/ml by crystal violet staining based assay relative to control. It counts as functional, organism-based. Conditions: dose microg/ml 8-32.
In data set [15] the test system is Staphylococcus epidermidis. Briefly: Induction of preformed biofilm disruption in Staphylococcus epidermidis ATCC 35984 at 64 ug/ml by crystal violet staining based assay relative to control. The settings on record: dose 64.0 µg/ml. Type of data set: functional.
A short description of data set [16]: Cytotoxicity against human HaCaT cells assessed as reduction in cell viability at 16 ug/ml incubated for 24 hrs by MTT assay. The settings on record: at 16 µg/mL, read-out: INH. Type of data set: cell-based. (In general: Formazan colour is commonly taken as a measure of viable cells.)
Data set [17] in a line: Cytotoxicity against human HaCaT cells assessed as reduction in cell viability at 32 ug/ml incubated for 24 hrs by MTT assay. It counts as cell-based. Conditions: at 32 µg/mL, read-out: INH.

As to `COc1ccc(Cc2cocc2Cc2ccccc2OC)cc1`, the MIC against Staphylococcus aureus [1] and against Pseudomonas aeruginosa was > 128 µg/mL each time.
For the compound `O=C1OC(O)C(Cc2ccc(O)cc2)=C1Cc1ccc(O)cc1` (configuration not stated), the MIC in the data set on Staphylococcus aureus [1] and in the data set with Pseudomonas aeruginosa was > 128 µg/mL each time.
For `NC[C@H]1O[C@H](O[C@H]2[C@H](O)[C@@H](O[C@H]3O[C@H](CO)[C@@H](O)[C@H](N)[C@H]3O)[C@H](N)C[C@@H]2N)[C@H](N)C[C@@H]1O` [TOBRAMYCIN], the lowest concentration to inhibit growth against Pseudomonas aeruginosa (MIC) was 4 µg/mL (≈ 8.56 µM).
In the case of `COc1ccc(CC2=C(Cc3ccc(OC)cc3)C(O)OC2=O)cc1` (configuration not stated), the minimum inhibitory concentration (MIC) against Staphylococcus aureus [1] and with Pseudomonas aeruginosa was > 128 µg/mL each time.
`C[C@@H]1[C@H](O)[C@@H](C)/C=C/C=C/C=C/C=C/C=C/C=C/C=C/[C@H](O[C@@H]2O[C@H](C)[C@@H](O)[C@H](N)[C@@H]2O)C[C@@H]2O[C@](O)(C[C@@H](O)C[C@@H](O)[C@H](O)CC[C@@H](O)C[C@@H](O)CC(=O)O[C@H]1C)C[C@H](O)[C@H]2C(=O)O` [AMPHOTERICIN B]: the MIC (usually the smallest concentration in the dilution series that meets the test's criterion for growth inhibition) against Candida albicans was 0.25 µg/mL (≈ 0.271 µM).
As for `COc1ccc(Cc2cocc2Cc2ccc(OC)cc2)cc1`, the MIC in the data set on Staphylococcus aureus [1] and against Pseudomonas aeruginosa was > 128 µg/mL each time.
Turning to `COc1ccc(Cc2cocc2Cc2ccccc2O)cc1`, the Activity in the data set with Staphylococcus aureus [2] stood at 1.56 log10CFU/ml; in the data set on Staphylococcus aureus [3], 1.61 log10CFU/ml; in the data set with Staphylococcus aureus [4] it was 1.94 log10CFU/ml; in the data set with Staphylococcus aureus [5] it was 2.47 log10CFU/ml; in the data set with Staphylococcus aureus [6] it was 5.7 log10CFU/ml. Moreover, the figures for the minimal inhibitory concentration (MIC) in the data set on Staphylococcus aureus [1] and against Pseudomonas aeruginosa were 16 µg/mL (≈ 54.4 µM) and > 128 µg/mL, respectively.
As to `CC(=O)Oc1ccc(Cc2cocc2Cc2ccc(OC(C)=O)cc2)cc1`, the minimal inhibitory concentration (MIC) with Staphylococcus aureus [1] and against Pseudomonas aeruginosa was > 128 µg/mL throughout.
Take `COc1ccc(CC23OC2OC2OC23Cc2ccc(OC)cc2)cc1` (configuration not stated): the minimum inhibitory concentration (MIC) with Staphylococcus aureus [1] and against Pseudomonas aeruginosa was > 128 µg/mL in each case.
For the compound `COc1ccc(CC2C(=O)OC3OC32Cc2ccc(OC)cc2)cc1` (configuration not stated), the minimal inhibitory concentration (MIC) in the data set on Staphylococcus aureus [1] and in the data set on Pseudomonas aeruginosa was > 128 µg/mL in each case.
Regarding `Oc1ccc(Cc2cocc2Cc2ccc(O)cc2)cc1`, the Activity came out at 5.74 log10CFU/ml in the data set on Staphylococcus aureus [7]; 5.77 log10CFU/ml in the data set on Staphylococcus aureus [8]; 6.38 log10CFU/ml with Staphylococcus aureus [9]; 7.77 log10CFU/ml in the data set with Staphylococcus aureus [10]; 8.86 log10CFU/ml in the data set with Staphylococcus aureus [11]. Also, the MIC against Staphylococcus aureus [1] is 32 µg/mL (≈ 114 µM); with Pseudomonas aeruginosa, > 128 µg/mL; in [12], 32 µg/mL (≈ 114 µM); against Candida albicans, 32 µg/mL (≈ 114 µM). Further, in data set [13], testing at 64 µg/mL gave an inhibition of 33%. Further, the inhibition (commonly the change of the read-out against control, counted positive when it falls) in [14] was “inactive”. Further, the inhibition in [15] was determined as 25%. For the same compound, the cytotoxicity at 24 h, 16 ug/ml in data set [16] was found to be 25%. Besides, the cytotoxicity at 24 h, 32 ug/ml in data set [17] turned out to be 40%.
Consider `COc1ccc(Cc2cocc2Cc2ccc(O)cc2)cc1`, for which the Activity is recorded as 1.24 log10CFU/ml in the data set on Staphylococcus aureus [2]; 1.35 log10CFU/ml in the data set on Staphylococcus aureus [3]; 1.6 log10CFU/ml in the data set on Staphylococcus aureus [4]; 2.2 log10CFU/ml with Staphylococcus aureus [5]; 5.75 log10CFU/ml in the data set on Staphylococcus aureus [6]. Also, the MIC against Staphylococcus aureus [1] is 16 µg/mL (≈ 54.4 µM); against Pseudomonas aeruginosa, > 128 µg/mL; in [12], 16 µg/mL (≈ 54.4 µM); in the data set on Candida albicans, 16 µg/mL (≈ 54.4 µM). This compound came in with an inhibition at 64 µg/mL in data set [13] of 33%. In addition, the inhibition result in data set [14] is “inactive”. For the same compound, the inhibition in data set [15] came to 25%. Also, the cytotoxicity at 24 h, 16 ug/ml in [16] is 50%.
With `Oc1ccc(Cc2cocc2Cc2ccccc2O)cc1`, the results for the MIC against Staphylococcus aureus [1] and against Pseudomonas aeruginosa were 64 µg/mL (≈ 228 µM) and > 128 µg/mL, respectively.
